Converted amounts (≈) assume the structure as drawn. Where two headings read alike, the source gives them in different places.
Experiments:
Experiment in all cases: Antimicrobial susceptibility testing (MIC), BD Phoenix Automated Microbiology System; on interpretation of the result: key: R, resistant; I, intermediate; S, susceptible; R*: *As a rule, when ESBL is detected, an interpretation of susceptible or intermediate for penicillins, cephalosporins and aztreonam is reported as resistant
Assay type in all cases: cell-based
[1] = test system: Escherichia coli; conditions: for MIC: Escherichia coli; on interpretation of the result: key: R, resistant; I, intermediate; S, susceptible; R*: *As a rule, when ESBL is detected, an interpretation of susceptible or intermediate for penicillins, cephalosporins and aztreonam is reported as resistant
Source text: (§1) The inventors performed antimicrobial susceptibility testing (AST) by determining the minimal inhibiting concentration (MIC) of a panel of antimicrobials on all twenty bacterial isolates using the BD Phoenix Automated Microbiology System (Table 3). Antimicrobial panels included several drugs from each of the four most commonly used classes of antimicrobials, aminoglycosides, β-lactams, carbapenems and fluoroquinolones. The panels also included antimicrobials from other classes, such as trimethoprim/sulfamethoxazole, but resistance to these was not considered in the classification of isolates as multidrug-resistant.

[2] = test system: Pseudomonas aeruginosa; conditions: for MIC: Pseudomonas aeruginosa; on interpretation of the result: key: R, resistant; I, intermediate; S, susceptible; R*: *As a rule, when ESBL is detected, an interpretation of susceptible or intermediate for penicillins, cephalosporins and aztreonam is reported as resistant
Source text: as §1

[3] = test system: Acinetobacter baumannii; conditions: for MIC: Acinetobacter baumannii; on interpretation of the result: key: R, resistant; I, intermediate; S, susceptible; R*: *As a rule, when ESBL is detected, an interpretation of susceptible or intermediate for penicillins, cephalosporins and aztreonam is reported as resistant
Source text: as §1

[4] = test system: Klebsiella ssp.; conditions: for MIC: Klebsiella
Source text: as §1

[5] = Pseudomonas aeruginosa isolate 1
[6] = Pseudomonas aeruginosa isolate 2
[7] = Pseudomonas aeruginosa isolate 3
[8] = Pseudomonas aeruginosa isolate 4
[9] = Pseudomonas aeruginosa isolate 5
[10] = Acinetobacter baumannii isolate 1
[11] = Acinetobacter baumannii isolate 2
[12] = Acinetobacter baumannii isolate 3
[13] = Acinetobacter baumannii isolate 4
[14] = Acinetobacter baumannii isolate 5

SMILES	interpretation of the result ([1]; Escherichia coli isolate 1)	interpretation of the result ([1]; Escherichia coli isolate 2)	interpretation of the result ([1]; Escherichia coli isolate 3)	interpretation of the result ([1]; Escherichia coli isolate 4)	interpretation of the result ([1]; Escherichia coli isolate 5)	interpretation of the result [2, 5]	interpretation of the result [2, 6]	interpretation of the result [2, 7]	interpretation of the result [2, 8]	interpretation of the result [2, 9]	interpretation of the result [3, 10]	interpretation of the result [3, 11]	interpretation of the result [3, 12]	interpretation of the result [3, 13]	interpretation of the result [3, 14]	interpretation of the result ([4]; Klebsiella ssp. isolate 1)	interpretation of the result ([4]; Klebsiella ssp. isolate 2)	interpretation of the result ([4]; Klebsiella ssp. isolate 3)	interpretation of the result ([4]; Klebsiella ssp. isolate 4)	interpretation of the result ([4]; Klebsiella ssp. isolate 5)	other results
C[C@@H](O)[C@H]1C(=O)N2C(C(=O)O)=C(SCCN=CN)C[C@H]12 [Im., Imipenem]	S	S	S	S	S	R	R	R	R	S	S	R	R	S	R	S	S	S	S	S	MIC ([1]; read-out: minimal inhibiting concentration, Escherichia coli isolate 1): ≤ 1 mg/L; MIC ([1]; read-out: minimal inhibiting concentration, Escherichia coli isolate 2): ≤ 1 mg/L; MIC ([1]; read-out: minimal inhibiting concentration, Escherichia coli isolate 3): ≤ 1 mg/L; MIC ([1]; read-out: minimal inhibiting concentration, Escherichia coli isolate 4): ≤ 1 mg/L; MIC ([1]; read-out: minimal inhibiting concentration, Escherichia coli isolate 5): ≤ 1 mg/L; MIC ([2]; read-out: minimal inhibiting concentration, Pseudomonas aeruginosa isolate 1): > 8 mg/L; MIC ([2]; read-out: minimal inhibiting concentration, Pseudomonas aeruginosa isolate 2): > 8 mg/L; MIC ([2]; read-out: minimal inhibiting concentration, Pseudomonas aeruginosa isolate 3): > 8 mg/L; MIC ([2]; read-out: minimal inhibiting concentration, Pseudomonas aeruginosa isolate 4): > 8 mg/L; MIC ([2]; read-out: minimal inhibiting concentration, Pseudomonas aeruginosa isolate 5): 2 mg/L (≈ 6.68 µM); MIC ([3]; read-out: minimal inhibiting concentration, Acinetobacter baumannii isolate 1): 2 mg/L (≈ 6.68 µM); MIC ([3]; read-out: minimal inhibiting concentration, Acinetobacter baumannii isolate 2): > 8 mg/L; MIC ([3]; read-out: minimal inhibiting concentration, Acinetobacter baumannii isolate 3): > 8 mg/L; MIC ([3]; read-out: minimal inhibiting concentration, Acinetobacter baumannii isolate 4): 2 mg/L (≈ 6.68 µM); MIC ([3]; read-out: minimal inhibiting concentration, Acinetobacter baumannii isolate 5): > 8 mg/L; MIC ([4]; read-out: minimal inhibiting concentration, Klebsiella ssp. isolate 1): ≤ 1 mg/L; MIC ([4]; read-out: minimal inhibiting concentration, Klebsiella ssp. isolate 2): ≤ 1 mg/L; MIC ([4]; read-out: minimal inhibiting concentration, Klebsiella ssp. isolate 3): ≤ 1 mg/L; MIC ([4]; read-out: minimal inhibiting concentration, Klebsiella ssp. isolate 4): ≤ 1 mg/L; MIC ([4]; read-out: minimal inhibiting concentration, Klebsiella ssp. isolate 5): ≤ 1 mg/L
CN(C)[C@@H]1C(O)=C(C(N)=O)C(=O)[C@@]2(O)C(O)=C3C(=O)c4c(O)cccc4[C@@](C)(O)[C@H]3C[C@@H]12 [Tet., Tetracycline]	R	S	R	R	R	R	R	R	R	R	R	S	R	R	I	R	R	R	R	R	MIC ([1]; Escherichia coli isolate 1, read-out: minimal inhibiting concentration): > 8 mg/L; MIC ([1]; Escherichia coli isolate 2, read-out: minimal inhibiting concentration): ≤ 2 mg/L; MIC ([1]; Escherichia coli isolate 3, read-out: minimal inhibiting concentration): > 8 mg/L; MIC ([1]; Escherichia coli isolate 4, read-out: minimal inhibiting concentration): > 8 mg/L; MIC ([1]; Escherichia coli isolate 5, read-out: minimal inhibiting concentration): > 8 mg/L; MIC ([2]; Pseudomonas aeruginosa isolate 1, read-out: minimal inhibiting concentration): > 8 mg/L; MIC ([2]; Pseudomonas aeruginosa isolate 2, read-out: minimal inhibiting concentration): > 8 mg/L; MIC ([2]; Pseudomonas aeruginosa isolate 3, read-out: minimal inhibiting concentration): > 8 mg/L; MIC ([2]; Pseudomonas aeruginosa isolate 4, read-out: minimal inhibiting concentration): > 8 mg/L; MIC ([2]; Pseudomonas aeruginosa isolate 5, read-out: minimal inhibiting concentration): > 8 mg/L; MIC ([3]; Acinetobacter baumannii isolate 1, read-out: minimal inhibiting concentration): > 8 mg/L; MIC ([3]; Acinetobacter baumannii isolate 2, read-out: minimal inhibiting concentration): 4 mg/L (≈ 9 µM); MIC ([3]; Acinetobacter baumannii isolate 3, read-out: minimal inhibiting concentration): > 8 mg/L; MIC ([3]; Acinetobacter baumannii isolate 4, read-out: minimal inhibiting concentration): > 8 mg/L; MIC ([3]; Acinetobacter baumannii isolate 5, read-out: minimal inhibiting concentration): 8 mg/L (≈ 18 µM); MIC ([4]; Klebsiella ssp. isolate 1, read-out: minimal inhibiting concentration): > 8 mg/L; MIC ([4]; Klebsiella ssp. isolate 2, read-out: minimal inhibiting concentration): > 8 mg/L; MIC ([4]; Klebsiella ssp. isolate 3, read-out: minimal inhibiting concentration): > 8 mg/L; MIC ([4]; Klebsiella ssp. isolate 4, read-out: minimal inhibiting concentration): > 8 mg/L; MIC ([4]; Klebsiella ssp. isolate 5, read-out: minimal inhibiting concentration): > 8 mg/L
